Measured values reported in the supplement of paper PMC10307832.

Experiments:
Assay in all cases: relative viability (nuclei count vs DMSO), 5 days (fraction); higher = more cells survive
H3255 = tested on: H3255
How it was run: (§1)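 Five library-drug doses in √10 steps were combined with a fixed anchor-drug dose, or a single drug was given alone, by pin tool to lung cancer cell lines in 1536-well plates the day after seeding. Nuclei were stained and counted after 5 days. Relative viability is the nuclei count in treated wells over that in vehicle wells, taken as the median of duplicate plates.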

LCLC-103H = tested on: LCLC-103H
How it was run: as §1

LXF-289 = tested on: LXF-289
How it was run: as §1

NCI-H1437 = tested on: NCI-H1437
How it was run: as §1

UMC-11 = tested on: UMC-11
How it was run: as §1

PC-3 [JPC-3] = tested on: PC-3 [JPC-3]
How it was run: as §1

HCC-15 = tested on: HCC-15
How it was run: as §1

NCI-H661 = tested on: NCI-H661
How it was run: as §1

ABC-1 = tested on: ABC-1
How it was run: as §1

NCI-H2009 = tested on: NCI-H2009
How it was run: as §1

SK-MES-1 = tested on: SK-MES-1
How it was run: as §1

NCI-H23 = tested on: NCI-H23
How it was run: as §1

LC-2-ad = tested on: LC-2-ad
How it was run: as §1

HCC-827 = tested on: HCC-827
How it was run: as §1

NCI-H2342 = tested on: NCI-H2342
How it was run: as §1

NCI-H2085 = tested on: NCI-H2085
How it was run: as §1

PC-14 = tested on: PC-14
How it was run: as §1

NCI-H1666 = tested on: NCI-H1666
How it was run: as §1

NCI-H1975 = tested on: NCI-H1975
How it was run: as §1

NCI-H2087 = tested on: NCI-H2087
How it was run: as §1

COR-L23 = tested on: COR-L23
How it was run: as §1

HCC-366 = tested on: HCC-366
How it was run: as §1

SMILES: Cc1csc(=NC2CCCCC2)n1/N=C/c1ccc(O)c(O)c1O [MIM1] + Nc1ncn([C@H]2C[C@H](O)[C@@H](CO)O2)c(=O)n1 [Decitabine] (partner 2 µM)
- relative viability (H3255; first compound 0.2 µM): 0.562
- relative viability (H3255; first compound 0.6325 µM): 0.657
- relative viability (H3255; first compound 2 µM): 0.527
- relative viability (H3255; first compound 6.325 µM): 0.486
- relative viability (H3255; first compound 20 µM): 0.242
- relative viability (LCLC-103H; first compound 0.2 µM): 0.773
- relative viability (LCLC-103H; first compound 0.6325 µM): 0.778
- relative viability (LCLC-103H; first compound 2 µM): 0.808
- relative viability (LCLC-103H; first compound 6.325 µM): 0.666
- relative viability (LCLC-103H; first compound 20 µM): 0.367
- relative viability (LXF-289; first compound 0.2 µM): 0.399
- relative viability (LXF-289; first compound 0.6325 µM): 0.368
- relative viability (LXF-289; first compound 2 µM): 0.394
- relative viability (LXF-289; first compound 6.325 µM): 0.328
- relative viability (LXF-289; first compound 20 µM): 0.253
- relative viability (NCI-H1437; first compound 0.2 µM): 0.592
- relative viability (NCI-H1437; first compound 0.6325 µM): 0.547
- relative viability (NCI-H1437; first compound 2 µM): 0.586
- relative viability (NCI-H1437; first compound 6.325 µM): 0.368
- relative viability (NCI-H1437; first compound 20 µM): 0.303
- relative viability (UMC-11; first compound 0.2 µM): 0.565
- relative viability (UMC-11; first compound 0.6325 µM): 0.585
- relative viability (UMC-11; first compound 2 µM): 0.647
- relative viability (UMC-11; first compound 6.325 µM): 0.607
- relative viability (UMC-11; first compound 20 µM): 0.42
- relative viability (PC-3 [JPC-3]; first compound 0.2 µM): 0.816
- relative viability (PC-3 [JPC-3]; first compound 0.6325 µM): 0.894
- relative viability (PC-3 [JPC-3]; first compound 2 µM): 0.752
- relative viability (PC-3 [JPC-3]; first compound 6.325 µM): 0.774
- relative viability (PC-3 [JPC-3]; first compound 20 µM): 0.609
- relative viability (HCC-15; first compound 0.2 µM): 0.634
- relative viability (HCC-15; first compound 0.6325 µM): 0.607
- relative viability (HCC-15; first compound 2 µM): 0.66
- relative viability (HCC-15; first compound 6.325 µM): 0.341
- relative viability (HCC-15; first compound 20 µM): 0.163
- relative viability (NCI-H661; first compound 0.2 µM): 0.496
- relative viability (NCI-H661; first compound 0.6325 µM): 0.571
- relative viability (NCI-H661; first compound 2 µM): 0.577
- relative viability (NCI-H661; first compound 6.325 µM): 0.416
- relative viability (NCI-H661; first compound 20 µM): 0.284
- relative viability (ABC-1; first compound 0.2 µM): 0.974
- relative viability (ABC-1; first compound 0.6325 µM): 1.28
- relative viability (ABC-1; first compound 2 µM): 1.14
- relative viability (ABC-1; first compound 6.325 µM): 0.944
- relative viability (ABC-1; first compound 20 µM): 0.427
- relative viability (NCI-H2009; first compound 0.2 µM): 0.401
- relative viability (NCI-H2009; first compound 0.6325 µM): 0.39
- relative viability (NCI-H2009; first compound 2 µM): 0.371
- relative viability (NCI-H2009; first compound 6.325 µM): 0.36
- relative viability (NCI-H2009; first compound 20 µM): 0.291
- relative viability (SK-MES-1; first compound 0.2 µM): 0.454
- relative viability (SK-MES-1; first compound 0.6325 µM): 0.424
- relative viability (SK-MES-1; first compound 2 µM): 0.376
- relative viability (SK-MES-1; first compound 6.325 µM): 0.272
- relative viability (SK-MES-1; first compound 20 µM): 0.21
- relative viability (NCI-H23; first compound 0.2 µM): 0.336
- relative viability (NCI-H23; first compound 0.6325 µM): 0.322
- relative viability (NCI-H23; first compound 2 µM): 0.288
- relative viability (NCI-H23; first compound 6.325 µM): 0.281
- relative viability (NCI-H23; first compound 20 µM): 0.169
- relative viability (LC-2-ad; first compound 0.2 µM): 0.777
- relative viability (LC-2-ad; first compound 0.6325 µM): 0.736
- relative viability (LC-2-ad; first compound 2 µM): 0.868
- relative viability (LC-2-ad; first compound 6.325 µM): 0.453
- relative viability (LC-2-ad; first compound 20 µM): 0.508
- relative viability (HCC-827; first compound 0.2 µM): 0.331
- relative viability (HCC-827; first compound 0.6325 µM): 0.334
- relative viability (HCC-827; first compound 2 µM): 0.305
- relative viability (HCC-827; first compound 6.325 µM): 0.292
- relative viability (HCC-827; first compound 20 µM): 0.175
- relative viability (NCI-H2342; first compound 0.2 µM): 0.724
- relative viability (NCI-H2342; first compound 0.6325 µM): 0.721
- relative viability (NCI-H2342; first compound 2 µM): 0.708
- relative viability (NCI-H2342; first compound 6.325 µM): 0.664
- relative viability (NCI-H2342; first compound 20 µM): 0.724
- relative viability (NCI-H2085; first compound 0.2 µM): 0.539
- relative viability (NCI-H2085; first compound 0.6325 µM): 0.522
- relative viability (NCI-H2085; first compound 2 µM): 0.516
- relative viability (NCI-H2085; first compound 6.325 µM): 0.491
- relative viability (NCI-H2085; first compound 20 µM): 0.563
- relative viability (PC-14; first compound 0.2 µM): 0.17
- relative viability (PC-14; first compound 0.6325 µM): 0.197
- relative viability (PC-14; first compound 2 µM): 0.201
- relative viability (PC-14; first compound 6.325 µM): 0.137
- relative viability (PC-14; first compound 20 µM): 0.0966
- relative viability (NCI-H1666; first compound 0.2 µM): 0.714
- relative viability (NCI-H1666; first compound 0.6325 µM): 0.741
- relative viability (NCI-H1666; first compound 2 µM): 0.665
- relative viability (NCI-H1666; first compound 6.325 µM): 0.734
- relative viability (NCI-H1666; first compound 20 µM): 0.467
- relative viability (NCI-H1975; first compound 0.2 µM): 0.384
- relative viability (NCI-H1975; first compound 0.6325 µM): 0.385
- relative viability (NCI-H1975; first compound 2 µM): 0.39
- relative viability (NCI-H1975; first compound 6.325 µM): 0.216
- relative viability (NCI-H1975; first compound 20 µM): 0.137
- relative viability (NCI-H2087; first compound 0.2 µM): 0.286
- relative viability (NCI-H2087; first compound 0.6325 µM): 0.273
- relative viability (NCI-H2087; first compound 2 µM): 0.231
- relative viability (NCI-H2087; first compound 6.325 µM): 0.327
- relative viability (NCI-H2087; first compound 20 µM): 0.246
- relative viability (COR-L23; first compound 0.2 µM): 0.405
- relative viability (COR-L23; first compound 0.6325 µM): 0.475
- relative viability (COR-L23; first compound 2 µM): 0.418
- relative viability (COR-L23; first compound 6.325 µM): 0.346
- relative viability (COR-L23; first compound 20 µM): 0.225
- relative viability (HCC-366; first compound 0.2 µM): 0.295
- relative viability (HCC-366; first compound 2 µM): 0.354
- relative viability (HCC-366; first compound 6.325 µM): 0.176
- relative viability (HCC-366; first compound 20 µM): 0.0249
